Source: patent US20110045101A1, “FUNGICIDAL SUBSTITUTED AZOLES” (E.I. Du Pont De Nemours and Company, priority 2009, published 2011)
Marks after values point to notes of the source that are not given here.

Tests used:
Type in all cases: in vivo
Conditions in all cases: 100 = 100% disease control
[1] = system: Puccinia recondita f. sp. tritici; assay: Test H: wheat leaf rust, test suspension sprayed after inoculation of wheat seedlings, visual disease rating
Excerpt: General protocol for preparing test suspensions for Tests A-J: The test compounds were first dissolved in acetone in an amount equal to 3% of the final volume and then suspended at the desired concentration (in ppm) in acetone and purified water (50/50 mix) containing 250 ppm of the surfactant Trem® 014 (polyhydric alcohol esters). The resulting test suspensions were then used in tests A-J. Spraying a 200 ppm test suspension to the point of run-off on the test plants was the equivalent of a rate of 500 g/ha. […] Wheat seedlings were inoculated with a spore suspension of Puccinia recondita f. sp. tritici (the causal agent of wheat leaf rust) and incubated in a saturated atmosphere at 20° C. for 24 h, and then moved to a growth chamber at 20° C. for 2 days. […] A dash (-) indicates no test results. All results are for 200 ppm except where followed by “*”, which indicates 40 ppm.

Septoria nodorum = assay: Test F: wheat glume blotch on wheat seedlings, sprayed the day before inoculation, visual disease rating
How it was run: (§1)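 Acetone solution (3% of final volume) of each compound is suspended in 50/50 acetone/water with 250 ppm Trem® 014. Plants are sprayed to run-off at 200 ppm, equivalent to 500 g/ha, or at 40 ppm for starred values.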

Septoria tritici = assay: Test G: wheat leaf blotch on wheat seedlings, sprayed the day before inoculation, visual disease rating
How it was run: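 Visual disease ratings taken 19 days after transfer to a 20° C growth chamber, following 48 h in saturated atmosphere at 24° C. Seedlings had been sprayed to run-off one day before spore inoculation. Dose 200 ppm, or 40 ppm where starred.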

Alternaria solani = assay: Test D: tomato early blight, sprayed the day before inoculation, visual disease rating
How it was run: as §1

Botrytis cinerea = assay: Test C: tomato Botrytis on tomato seedlings, sprayed the day before inoculation, visual disease rating
How it was run: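 Disease ratings refer to tomato seedlings treated by run-off spraying with compound suspensions, mostly 200 ppm (500 g/ha equivalent) and in marked cases 40 ppm. Carrier: acetone/purified water 50/50 with 250 ppm polyhydric alcohol ester surfactant, after predissolving in acetone.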

[2] = system: Puccinia recondita f. sp. tritici; assay: Test I: wheat leaf rust on wheat seedlings, sprayed the day before inoculation, visual disease rating
How it was run: as §1

[3] = system: Erysiphe graminis f. sp. tritici; assay: Test J: wheat powdery mildew on wheat seedlings, sprayed the day before inoculation, visual disease rating
How it was run: as §1

[4] = 200 ppm, 0 = no control relative to controls
[5] = 40 ppm (marked *), 0 = no control

Structure (SMILES) | Test H disease control rating [1, 4] [%] | Test F disease control rating (Septoria nodorum; [4]) [%] | Test G disease control rating (Septoria tritici; [4]) [%] | Test D disease control rating (Alternaria solani; [4]) [%] | Test C disease control rating (Botrytis cinerea; [4]) [%] | Test I disease control rating [2, 4] [%] | Test J disease control rating [3, 4] [%] | also measured
Cc1ncn(-c2ccc(Cl)c(F)c2)c1-c1ccnc(F)c1 [compound 319] | 6 | 0 | 98 | 24 | 99 | 28 | 81 | –
COc1cc(F)c(-c2c(Cl)nc(Cl)n2-c2cccnc2Br)c(F)c1 [compound 576] | 100 | 100 | 100 | 99 | 100 | 100 | 99 | –
COc1cc(Cl)c(-c2c(Cl)nc(Cl)n2-c2ccc(Cl)c(F)c2)c(Cl)c1 [compound 437] | 0 | 60 | 100 | 80 | 99 | 98 | 98 | –
COC(=O)c1ccc(-n2cnc(N(C)C)c2-c2c(F)cccc2F)cc1 [compound 633] | – | – | – | – | – | – | – | Test H disease control rating ([1]; 40 ppm (marked *)): 0* %; Test F disease control rating (Septoria nodorum; 40 ppm (marked *)): 0* %; Test G disease control rating (Septoria tritici; 40 ppm (marked *)): 0* %; Test D disease control rating (Alternaria solani; 40 ppm (marked *)): 0* %; Test C disease control rating (Botrytis cinerea; 40 ppm (marked *)): 0* %; Test I disease control rating ([2]; 40 ppm (marked *)): 44* %; Test J disease control rating ([3]; 40 ppm (marked *)): 0* %
COc1ccc(-n2c(Br)nc(Br)c2-c2c(F)cccc2F)cn1 [compound 622] | 100 | 99 | 99 | 100 | 100 | 100 | 100 | –
COc1cc(F)c(-c2c(Cl)nc(Cl)n2-c2ccc(C)c(I)c2)c(F)c1 [compound 647] | – | – | 95 | – | – | – | – | Test H disease control rating ([1]; 40 ppm (marked *)): 0* %; Test F disease control rating (Septoria nodorum; 40 ppm (marked *)): 0* %; Test D disease control rating (Alternaria solani; 40 ppm (marked *)): 0* %; Test C disease control rating (Botrytis cinerea; 40 ppm (marked *)): 0* %; Test I disease control rating ([2]; 40 ppm (marked *)): 0* %; Test J disease control rating ([3]; 40 ppm (marked *)): 69* %
Cc1nc(Cl)c(-c2ccc(Cl)cc2)n1-c1ccc(F)cc1Cl [compound 422] | 0 | 60 | 100 | 100 | 100 | 99 | 100 | –
COc1ccc(F)c(-c2c(Cl)nc(Cl)n2-c2cccc(C)c2)c1F [compound 391] | 0 | 0 | 94 | 99 | 100 | 99 | 100 | –
COc1ccc(F)c(-c2c(Cl)ncn2-c2ccc(C#N)cc2)c1F [compound 527] | 37 | 0 | 95 | 99 | 100 | 91 | 88 | –
Fc1ccc(F)c(-c2c(Br)nc(Br)n2-c2ccc(Cl)cc2)c1F [compound 383] | – | – | – | – | – | – | – | Test H disease control rating [1, 5]: 0* %; Test F disease control rating (Septoria nodorum; [5]): 35* %; Test G disease control rating (Septoria tritici; [5]): 96* %; Test D disease control rating (Alternaria solani; [5]): 99* %; Test C disease control rating (Botrytis cinerea; [5]): 100* %; Test I disease control rating [2, 5]: 91* %; Test J disease control rating [3, 5]: 98* %
Fc1cc(-n2c(Cl)nc(Br)c2-c2c(F)ccc(F)c2F)ccc1Cl [compound 350] | 0 | 82 | 91 | 100 | 99 | 99 | 100 | –
Cc1ccc(-n2c(Cl)nc(Cl)c2-c2ccc(F)cc2Cl)cc1 [compound 282] | – | – | – | – | – | – | – | Test H disease control rating ([1]; 200 ppm, 0 = no control): 65%; Test F disease control rating (Septoria nodorum; 200 ppm, 0 = no control): 0%; Test G disease control rating (Septoria tritici; 200 ppm, 0 = no control): 93%; Test D disease control rating (Alternaria solani; 200 ppm, 0 = no control): 99%; Test C disease control rating (Botrytis cinerea; 200 ppm, 0 = no control): 99%; Test I disease control rating ([2]; 200 ppm, 0 = no control): 99%; Test J disease control rating ([3]; 200 ppm, 0 = no control): 100%
COc1cc(OC)cc(-n2c(Cl)nc(C)c2-c2c(F)cc(OC)cc2F)c1 [Compound 694, 2-chloro-5-(2,6-difluoro-4-methoxyphenyl)-1-(3,5-dimethoxyphenyl)-4-methyl-1H-imidazole] | – | – | – | – | – | – | – | pest or weed control at 40 ppm ([1]; Puccinia recondita, 96 h, 40 ppm (marked *)): 0%; pest or weed control at 40 ppm (Septoria nodorum; Parastagonospora nodorum, 264 h, 40 ppm (marked *)): 99%; pest or weed control at 40 ppm (Septoria tritici; Zymoseptoria tritici, 504 h, 40 ppm (marked *)): 98%; pest or weed control at 40 ppm (Alternaria solani; Alternaria solani, 168 h, 40 ppm (marked *)): 100%; pest or weed control at 40 ppm (Botrytis cinerea; Botrytis cinerea, 120 h, 40 ppm (marked *)): 100%; pest or weed control at 40 ppm ([2]; Puccinia recondita, 168 h, 40 ppm (marked *)): 99%; pest or weed control at 40 ppm ([3]; Blumeria graminis, 168 h, 40 ppm (marked *)): 98%
COc1cc(F)c(-c2c(Cl)nc(C)n2-c2ccc(C)c(Cl)c2)c(F)c1 [compound 601] | – | – | – | – | – | – | – | Test H disease control rating ([1]; 40 ppm (marked *)): 7* %; Test F disease control rating (Septoria nodorum; 40 ppm (marked *)): 87* %; Test G disease control rating (Septoria tritici; 40 ppm (marked *)): 99* %; Test D disease control rating (Alternaria solani; 40 ppm (marked *)): 98* %; Test C disease control rating (Botrytis cinerea; 40 ppm (marked *)): 99* %; Test I disease control rating ([2]; 40 ppm (marked *)): 97* %; Test J disease control rating ([3]; 40 ppm (marked *)): 97* %
Cc1ncn(-c2ccc(Cl)c(F)c2)c1-c1ccc(Br)cn1 [compound 347] | 26 | 0 | 70 | 0 | 93 | 9 | 0 | –
Fc1cccc(F)c1-c1c(Cl)nc(CCl)n1-c1ccc2c(c1)OCCO2 [compound 469] | – | – | – | – | – | – | – | Test H disease control rating ([1]; 40 ppm (marked *)): 0* %; Test F disease control rating (Septoria nodorum; 40 ppm (marked *)): 0* %; Test G disease control rating (Septoria tritici; 40 ppm (marked *)): 79* %; Test D disease control rating (Alternaria solani; 40 ppm (marked *)): 0* %; Test C disease control rating (Botrytis cinerea; 40 ppm (marked *)): 65* %; Test I disease control rating ([2]; 40 ppm (marked *)): 81* %; Test J disease control rating ([3]; 40 ppm (marked *)): 0* %
COc1cc(F)c(-c2c(Cl)nc(N)n2-c2ccc(Cl)cc2)c(F)c1 [compound 638] | 0 | 55 | 99 | 99 | 99 | 95 | 56 | –
CN(C)c1ccc(-n2cnc(Cl)c2-c2c(F)cccc2F)cc1Cl [compound 650] | – | – | – | – | – | – | – | Test H disease control rating ([1]; 40 ppm (marked *)): 9* %; Test F disease control rating (Septoria nodorum; 40 ppm (marked *)): 0* %; Test G disease control rating (Septoria tritici; 40 ppm (marked *)): 0* %; Test D disease control rating (Alternaria solani; 40 ppm (marked *)): 0* %; Test C disease control rating (Botrytis cinerea; 40 ppm (marked *)): 0* %; Test I disease control rating ([2]; 40 ppm (marked *)): 0* %; Test J disease control rating ([3]; 40 ppm (marked *)): 0* %
Fc1cc(F)c(-c2c(Cl)nc(Br)n2-c2cccc(OC(F)F)c2)c(F)c1 [compound 603] | 98 | 99 | 99 | 100 | 99 | 100 | 100 | –
Cc1nc(Cl)n(-c2ccc(Cl)c(F)c2)c1-c1ccc(Br)cn1 [compound 358] | 0 | 0 | 90 | 0 | 99 | 41 | 0 | –
